Measurements taken from US8188077B2, “Apoptosis-inducing agents for the treatment of cancer and immune and autoimmune diseases” (Abbott Laboratories, priority 2010, dated 2012).

The compounds below were run against T1, Bcl-2 protein (Homo sapiens, UniProt P10415, DELINS35-91DVEENRTEAPEGTESE, form not given) (assay: Bcl-2 fluorescence polarization assay (FPA) binding). Details: 10 nM Bcl-2 protein, 1 nM fluorescein-labeled BAX peptide, room temperature, read-out: Bcl-2 FPA 11pt Ki.
T1 construct: fused on or other part: Bcl-xL (Q07817) residues 29-44 stand in place of Bcl-2's own unstructured loop 35-91; The C-terminal membrane anchor (208-239) is absent
T1 sequence (P10415 with tags, fused parts or gaps with the stated changes): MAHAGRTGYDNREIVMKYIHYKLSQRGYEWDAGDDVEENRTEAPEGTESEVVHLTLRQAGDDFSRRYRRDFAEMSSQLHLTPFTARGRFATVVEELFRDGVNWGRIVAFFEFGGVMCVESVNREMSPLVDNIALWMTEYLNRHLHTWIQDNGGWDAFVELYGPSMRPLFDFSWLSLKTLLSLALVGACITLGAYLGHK
Summary of the method: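 Competitive fluorescence polarization with 10 nM Bcl-2 protein and 1 nM fluorescein-labeled BAX peptide in 20 mM phosphate pH 7.4, 1 mM EDTA, 0.05% PF-68. Compound dilutions in DMSO spanned […] to 10 pM; mix shaken 2 min, polarization read at room temperature (ex 485/em 530 nm); Ki values calculated.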
For `O=C(NS(=O)(=O)c1ccc(NC2CCOCC2)c([N+](=O)[O-])c1)c1ccc(N2CC3CN(C(=O)C45CC6CC(CC(C6)C4)C5)CC32)cc1` [Example 44, 4-{1S,5S)-3-[adamantan-1-ylcarbonyl]-3,6-diazabicyclo[3.2.0]hept-6-yl}-N-{[3-nitro-4-(tetrahydro-2H-pyran-4-ylamino)phenyl]sulfonyl}benzamide], the Ki was greater than 6250 nM. Compound `CC12CC3CC(C)(C1)CC(CN1CCN(c4ccc(C(=O)NS(=O)(=O)c5ccc(NCC6CCCCC6)c([N+](=O)[O-])c5)cc4)CC1)(C3)C2` [Example 13, N-({4-[(cyclohexylmethyl)amino]-3-nitrophenyl}sulfonyl)-4-(4-{[3,5-dimethyladamantan-1-yl]methyl}piperazin-1-yl)benzamide] has a Ki of 608 nM. With `CC1(C)[C@H]2CC=C(c3ccccc3CN3CCN(c4ccc(C(=O)NS(=O)(=O)c5ccc(NCC6CCOCC6)c([N+](=O)[O-])c5)cc4)CC3)[C@@H]1C2` [Example 27, 4-(4-{2-[(1R,5S)-6,6-dimethylbicyclo[3.1.1]hept-2-en-2-yl]benzyl}piperazin-1-yl)-N-({3-nitro-4-[(tetrahydro-2H-pyran-4-ylmethyl)amino]phenyl}sulfonyl)benzamide] the Ki was 27.1 nM. In the case of `CC1(C)C2C=C(c3ccccc3CN3CCN(c4ccc(C(=O)NS(=O)(=O)c5ccc(NCC6CCOCC6)c([N+](=O)[O-])c5)cc4)CC3)C1(C(=O)Nc1ccccc1)CC2` (stereo not drawn) [Example 35, 7,7-dimethyl-2-{2-[(4-{4-[({3-nitro-4-[(tetrahydro-2H-pyran-4-ylmethyl)amino]phenyl}sulfonyl)carbamoyl]phenyl}piperazin-1-yl)methyl]phenyl}-N-phenylbicyclo[2.2.1]hept-2-ene-1-carboxamide], the Ki is reported as 21.7 nM. For `O=C(NS(=O)(=O)c1ccc(NCC2CCOCC2)c([N+](=O)[O-])c1)c1ccc(N2CCN(Cc3ccccc3-c3cn(C45CC6CC(CC(C6)C4)C5)nc3C(=O)N(c3ccccc3)c3ccccc3)CC2)cc1` [Example 24, 1-[adamantan-1-yl]-4-{2-[(4-{4-[({3-nitro-4-[(tetrahydro-2H-pyran-4-ylmethyl)amino]phenyl}sulfonyl)carbamoyl]phenyl}piperazin-1-yl)methyl]phenyl}-N,N-diphenyl-1H-pyrazole-3-carboxamide], the Ki was 2270 nM. `C[C@@H]1[C@@H](Nc2cccc(-c3ccc(C(=O)NS(=O)(=O)c4ccc(NCC5CCCCC5)c([N+](=O)[O-])c4)cc3)c2)C[C@H]2C[C@@H]1C2(C)C` [Example 4, N-({4-[(cyclohexylmethyl)amino]-3-nitrophenyl}sulfonyl)-3′-{[(1S,2S,3S,5R)-2,6,6-trimethylbicyclo[3.1.1]hept-3-yl]amino}biphenyl-4-carboxamide] showed a Ki of 191 nM. `CC12CC3CC(Br)(C1)CC(CN1CCN(c4ccc(C(=O)NS(=O)(=O)c5ccc(NCC6CCCCC6)c([N+](=O)[O-])c5)cc4)CC1)(C3)C2` (stereo not drawn) [Example 12, 4-(4-{[3-bromo-5-methyladamantan-1-yl]methyl}piperazin-1-yl)-N-({4-[(cyclohexylmethyl)amino]-3-nitrophenyl}sulfonyl)benzamide] gave a Ki of 304 nM. `O=C(NS(=O)(=O)c1ccc(NCC2CCOCC2)c([N+](=O)[O-])c1)c1ccc(N2CCN(Cc3ccccc3-c3ccc(-c4nc(C56CC7CC(CC(C7)C5)C6)cs4)s3)CC2)cc1` [Example 63, 4-[4-(2-{5-[4-(adamantan-1-yl)-1,3-thiazol-2-yl]-2-thienyl}benzyl)piperazin-1-yl]-N-({3-nitro-4-[(tetrahydro-2H-pyran-4-ylmethyl)amino]phenyl}sulfonyl)benzamide] was tested, and the Ki was 278 nM. `O=C(CCN(Cc1ccccc1)C(=O)CC12CC3CC(CC(C3)C1)C2)NS(=O)(=O)c1ccc(NCC2CCCCC2)c([N+](=O)[O-])c1` [Example 52, N^3-[adamantan-1-ylacetyl]-N^3-benzyl-N-({4-[(cyclohexylmethyl)amino]-3-nitrophenyl}sulfonyl)-beta-alaninamide] gave a Ki of 1390 nM. In the case of “N-(adamantan-2-yl)-6-methyl-8-{2-[(4-{4-[({3-nitro-4-[(tetrahydro-2H-pyran-4-ylmethyl)amino]phenyl}sulfonyl)carbamoyl]phenyl}piperazin-1-yl)methyl]phenyl}imidazo[1,2-a]pyridine-2-carboxamide [Example 26]”, the Ki is reported as 1170 nM. For `C[C@@H]1[C@@H](N(CCCc2ccccc2)C2CCN(c3ccc(C(=O)NS(=O)(=O)c4ccc(NC5CCOCC5)c([N+](=O)[O-])c4)cc3)CC2)C[C@H]2C[C@@H]1C2(C)C` [Example 45, N-{[3-nitro-4-(tetrahydro-2H-pyran-4-ylamino)phenyl]sulfonyl}-4-(4-{(3-phenylpropyl)[(1S,2S,3S,5R)-2,6,6-trimethylbicyclo[3.1.1]hept-3-yl]amino}piperidin-1-yl)benzamide], the Ki was 79 nM. With `O=C(NS(=O)(=O)c1ccc(NCC2CCOCC2)c([N+](=O)[O-])c1)c1ccc(N2CCN(Cc3ccccc3-c3ccc(C(=O)Nc4ccc5oc(-c6ccccc6)nc5c4)o3)CC2)cc1` [Example 64, 5-{2-[(4-{4-[({3-nitro-4-[(tetrahydro-2H-pyran-4-ylmethyl)amino]phenyl}sulfonyl)carbamoyl]phenyl}piperazin-1-yl)methyl]phenyl}-N-(2-phenyl-1,3-benzoxazol-5-yl)-2-furamide] the Ki was 1470 nM. `O=C(NS(=O)(=O)c1ccc(NCC2CCOCC2)c([N+](=O)[O-])c1)c1ccc(N2CCN(Cc3ccccc3-c3ccc(-c4nc(-c5ccccc5)cs4)s3)CC2)cc1` [Example 62, N-({3-nitro-4-[(tetrahydro-2H-pyran-4-ylmethyl)amino]phenyl}sulfonyl)-4-(4-{2-[5-(4-phenyl-1,3-thiazol-2-yl)-2-thienyl]benzyl}piperazin-1-yl)benzamide] was tested, and the Ki was 281 nM. Work on `CC1(C)C2C=C(c3ccccc3CN3CCN(c4ccc(C(=O)NS(=O)(=O)c5ccc(NCC6CCOCC6)c([N+](=O)[O-])c5)cc4)CC3)C1(C(=O)NCc1ccccc1)CC2` (stereo not drawn) [Example 30, N-benzyl-7,7-dimethyl-2-{2-[(4-{4-[({3-nitro-4-[(tetrahydro-2H-pyran-4-ylmethyl)amino]phenyl}sulfonyl)carbamoyl]phenyl}piperazin-1-yl)methyl]phenyl}bicyclo[2.2.1]hept-2-ene-1-carboxamide] yielded a Ki of 295 nM. For `C[C@@H]1[C@@H](Nc2ccc(C=C3CCN(c4ccc(C(=O)NS(=O)(=O)c5ccc(NCC6CCOCC6)c([N+](=O)[O-])c5)cc4)CC3)cc2)C[C@H]2C[C@@H]1C2(C)C` [Example 72, N-({3-nitro-4-[(tetrahydro-2H-pyran-4-ylmethyl)amino]phenyl}sulfonyl)-4-[4-(4-{[(1S,2S,3S,5R)-2,6,6-trimethylbicyclo[3.1.1]hept-3-yl]amino}benzylidene)piperidin-1-yl]benzamide], the Ki was 287 nM. Compound `O=C(NS(=O)(=O)c1ccc(NC2CCOCC2)c([N+](=O)[O-])c1)c1ccc(OCCC23CC4CC(CC(C4)C2)C3)cc1` [Example 51, 4-{2-[adamantan-1-yl]ethoxy}-N-{[3-nitro-4-(tetrahydro-2H-pyran-4-ylamino)phenyl]sulfonyl}benzamide] has a Ki of 1050 nM. Compound `O=C(NS(=O)(=O)c1ccc(NCC2CCCCC2)c([N+](=O)[O-])c1)c1ccc2cc(-c3ccc(O)c(C45CC6CC(CC(C6)C4)C5)c3)ccc2c1` [Example 48, 6-{3-[adamantan-1-yl]-4-hydroxyphenyl}-N-({4-[(cyclohexylmethyl)amino]-3-nitrophenyl}sulfonyl)-2-naphthamide] has a Ki of 1390 nM. `O=C(NS(=O)(=O)c1ccc(NCC2CCOCC2)c([N+](=O)[O-])c1)c1ccc(N2CCN(Cc3ccccc3NC3CC4CC3C3CCCC43)CC2)cc1` (stereo not drawn) [Example 16] was tested, and the Ki was 39.7 nM. With `CC12CC(CN(c3ccc(S(=O)(=O)NC(=O)c4ccc(N5CCN(Cc6ccccc6-c6ccc(Cl)cc6)CC5)cc4)cc3)C1=O)C2` [Example 14, 4-{4-[(4′-chlorobiphenyl-2-yl)methyl]piperazin-1-yl}-N-{[4-(1-methyl-2-oxo-3-azabicyclo[3.1.1]hept-3-yl)phenyl]sulfonyl}benzamide] the Ki was 47.4 nM. Compound `C[C@@H]1[C@@H](N(C(=O)Cc2ccccc2)C2CCN(c3ccc(C(=O)NS(=O)(=O)c4ccc(NCC5CCCCC5)c([N+](=O)[O-])c4)cc3)CC2)C[C@H]2C[C@@H]1C2(C)C` [Example 5, N-({4-[(cyclohexylmethyl)amino]-3-nitrophenyl}sulfonyl)-4-(4-{(phenylacetyl)[(1S,2S,3S,5R)-2,6,6-trimethylbicyclo[3.1.1]hept-3-yl]amino}piperidin-1-yl)benzamide] has a Ki of 59.2 nM. Work on `CN1[C@@H]2CC[C@H]1CC(Nc1ccccc1CN1CCN(c3ccc(C(=O)NS(=O)(=O)c4ccc(NCC5CCOCC5)c([N+](=O)[O-])c4)cc3)CC1)C2` (stereo partly drawn) [Example 31, 4-[4-(2-{[(1R,5S)-8-methyl-8-azabicyclo[3.2.1]oct-3-yl]amino}benzyl)piperazin-1-yl]-N-({3-nitro-4-[(tetrahydro-2H-pyran-4-ylmethyl)amino]phenyl}sulfonyl)benzamide] yielded a Ki of 31.9 nM.
